Assay results: PubChem BioAssay AID1996
Values after ≈ are worked out from the molar mass of the structure shown.

conditions: buffer; pH 7.4; 200.0 µM

Which solubility kinetic does the source give for CN(C)C(=S)c1ccccc1 here?
Its solubility kinetic is 21.4 µg/mL (≈ 129 µM).

Which solubility kinetic does the source give for Cc1ccccc1OCCC(=O)OCC(=O)NC1CC1 here?
The solubility kinetic was over 41.6 µg/mL.

Which solubility kinetic does the source give for Cc1nc(SCC(N)=O)c([N+](=O)[O-])[nH]1 here?
Its solubility kinetic is over 32.4 µg/mL.

For Cc1onc(C(=O)NC2CCCCC2)c1[N+](=O)[O-], which solubility kinetic is on record?
The solubility kinetic was over 38 µg/mL.

For CCSCc1nnc(SCC(=O)Nc2nccs2)n1CC, which solubility kinetic is on record?
Its solubility kinetic is over 51.5 µg/mL.

For O=C(CCc1ccncc1)N1CCCC(Nc2ccc(F)c(F)c2)C1 (stereo unspecified), which solubility kinetic is on record?
The solubility kinetic was 43.9 µg/mL (≈ 127 µM).

Which solubility kinetic does the source give for CCOC(=O)C1(Cc2ccccc2)C(=O)N(CCCN(C)C)c2ccccc21.Cl (stereo unspecified) here?
The solubility kinetic was 57 µg/mL.

For CCCC(=O)Nc1ccc(-c2nc3ncccc3o2)cc1, which solubility kinetic is on record?
The solubility kinetic was 2.1 µg/mL (≈ 7.46 µM).

With CNS(=O)(=O)c1cccc(C(=O)OCC(=O)N2CCCC2)c1 as the molecule, how does the solubility kinetic read?
The solubility kinetic was 45.2 µg/mL (≈ 138 µM).

Which solubility kinetic does the source give for Cc1ccc(S(=O)(=O)Nc2ccccc2C(=O)N2CCCCC2)cc1 here?
The solubility kinetic was over 53.8 µg/mL.

For CC(=O)Nc1ccc(OCCC[n+]2ccccc2)cc1.[Cl-], which solubility kinetic is on record?
Its solubility kinetic is over 46 µg/mL.

With O=C(Nc1ccc(Cl)c(S(=O)(=O)N2CCOCC2)c1)c1ccncc1 as the molecule, how does the solubility kinetic read?
The solubility kinetic was over 57.3 µg/mL.

Which solubility kinetic does the source give for CC(C)c1ccc(NC(=O)C2C3C=CC(CC3)C2C(=O)O)cc1 (stereo unspecified) here?
The solubility kinetic was 3.2 µg/mL (≈ 10.2 µM).

For CC(=O)c1cccc(NC(=O)/C(=C/c2ccncc2)NC(=O)c2ccccc2)c1, which solubility kinetic is on record?
The solubility kinetic was 4.2 µg/mL (≈ 10.9 µM).

Which solubility kinetic does the source give for Cn1c(=O)n(Cc2ccccc2Cl)c(=O)c2c1[nH]c(=S)n2C here?
The solubility kinetic was over 50.5 µg/mL.

For CCCCn1c(=O)[nH]c(=O)c2c1nc(-c1ccccn1)n2CC, which solubility kinetic is on record?
The solubility kinetic was 18.7 µg/mL (≈ 59.7 µM).

For O=C(Nc1ccc(S(=O)(=O)Nc2ncccn2)cc1)C(F)(F)F, which solubility kinetic is on record?
Its solubility kinetic is over 51.9 µg/mL.

Which solubility kinetic does the source give for CCCC1CCC(c2ccc(/C(N)=N/O)cc2)CC1 (stereo unspecified) here?
The solubility kinetic was under 0.3 µg/mL.

Which solubility kinetic does the source give for CNc1nc(NCc2ccccc2)c2ccccc2n1.Cl here?
The solubility kinetic was 37 µg/mL.

For COc1ccccc1CCNS(=O)(=O)c1ccc(C(=O)O)n1C, which solubility kinetic is on record?
The solubility kinetic was over 50.8 µg/mL.

Which solubility kinetic does the source give for O=C(CSc1ccccc1)N1CCN(C(=O)c2ccco2)CC1 here?
Its solubility kinetic is over 49.6 µg/mL.

With N#Cc1ccc(Cn2c(=O)oc3ccccc32)cc1 as the molecule, how does the solubility kinetic read?
Its solubility kinetic is 6 µg/mL (≈ 24 µM).

Which solubility kinetic does the source give for Cc1ccsc1-c1nc(CN2C[C@@H](C)O[C@@H](C)C2)c(C)o1 here?
Its solubility kinetic is over 46 µg/mL.

With O=C(O)CC(c1ccc(Cl)cc1)N1Cc2ccccc2C1=O (stereo unspecified) as the molecule, how does the solubility kinetic read?
The solubility kinetic was over 47.4 µg/mL.

Which solubility kinetic does the source give for Oc1ccccc1C(=S)N1CCN(C(=S)c2ccccc2O)CC1 here?
Its solubility kinetic is 5.1 µg/mL (≈ 14.2 µM).

With O=C(O)c1cccc(NC(=S)NC(=O)c2cncc(Br)c2)c1 as the molecule, how does the solubility kinetic read?
Its solubility kinetic is over 57 µg/mL.

For O=[N+]([O-])c1cccc(-c2nnc(SCc3cccnc3)o2)c1, which solubility kinetic is on record?
Its solubility kinetic is over 47.1 µg/mL.

Which solubility kinetic does the source give for CC(Oc1cccc(Br)c1)C(=O)Nc1cccc(S(=O)(=O)N2CCOCC2)c1 (stereo unspecified) here?
Its solubility kinetic is 16.2 µg/mL (≈ 34.5 µM).

Which solubility kinetic does the source give for Cc1ccc(NS(=O)(=O)c2c(C)noc2C)cc1 here?
Its solubility kinetic is over 39.9 µg/mL.

For Cc1cccc(N2CCN(C(=O)N3CCCCC3)CC2)c1C, which solubility kinetic is on record?
Its solubility kinetic is 26.3 µg/mL (≈ 87.2 µM).

For Cc1ccccc1Oc1nc2c(c(=O)n(C)c(=O)n2C)n1C, which solubility kinetic is on record?
The solubility kinetic was over 45 µg/mL.

For CC(=O)OC(C(=O)NC1CCCCC1)c1ccccc1Cl (stereo unspecified), which solubility kinetic is on record?
Its solubility kinetic is 39.1 µg/mL (≈ 126 µM).

Which solubility kinetic does the source give for COCCNc1c(-c2ccc(OC)cc2)nc2ccc(Cl)cn12 here?
The solubility kinetic was 38.4 µg/mL (≈ 116 µM).

Which solubility kinetic does the source give for Cc1cccc(C(=O)OC2CCCN(C)C2)c1C.Cl (stereo unspecified) here?
Its solubility kinetic is 36.9 µg/mL.

Which solubility kinetic does the source give for COCCCNC(=O)c1ccc(CSCc2ccc(C)cc2)o1 here?
The solubility kinetic was 49.8 µg/mL (≈ 149 µM).

With CC1C(Br)C(=O)NC(=O)N1Cc1ccccc1 (stereo unspecified) as the molecule, how does the solubility kinetic read?
Its solubility kinetic is 41.4 µg/mL (≈ 139 µM).

For Cc1cc(C)nc(NC(=O)Cc2ccc(Cl)cc2)c1, which solubility kinetic is on record?
The solubility kinetic was 8.6 µg/mL (≈ 31.3 µM).

Which solubility kinetic does the source give for CC(=O)Nc1ccc(OC(=O)N(C)c2ccc(C)cc2)cc1 here?
Its solubility kinetic is over 44.8 µg/mL.

For O=C(Nc1cccc(C(=O)Nc2ccc(Cl)cn2)c1)c1ccccc1, which solubility kinetic is on record?
The solubility kinetic was 0.7 µg/mL (≈ 1.99 µM).

With COP(=O)(OC)C(Nc1ccccc1)c1ccccc1 (stereo unspecified) as the molecule, how does the solubility kinetic read?
Its solubility kinetic is over 43.7 µg/mL.

Which solubility kinetic does the source give for COc1ccc(CCNC(=O)COC(=O)c2cnc(Cl)c(Cl)c2)cc1 here?
The solubility kinetic was 5.4 µg/mL (≈ 14.1 µM).

For O=C(OCC(=O)N1CCc2ccccc21)c1ccc[nH]c1=O, which solubility kinetic is on record?
Its solubility kinetic is 8.6 µg/mL (≈ 28.8 µM).

Which solubility kinetic does the source give for Cc1c(C)n(C)c2ccc(C(=O)NCCN3CCOCC3)cc12 here?
Its solubility kinetic is over 47.3 µg/mL.

With COC(=O)c1ccc(OC(=O)c2cnccn2)cc1 as the molecule, how does the solubility kinetic read?
The solubility kinetic was over 38.7 µg/mL.

With Cc1csc(NC(=O)C2=COCCO2)n1 as the molecule, how does the solubility kinetic read?
The solubility kinetic was over 33.9 µg/mL.

For O=C1CN(S(=O)(=O)c2cccc(C(=O)O)c2)c2ccccc2N1, which solubility kinetic is on record?
The solubility kinetic was over 49.8 µg/mL.

For NC(=S)Nc1ccc(C(F)(F)F)cc1Cl, which solubility kinetic is on record?
The solubility kinetic was 33.5 µg/mL (≈ 132 µM).

With CC(=O)Nc1cc(O)cc(O)c1 as the molecule, how does the solubility kinetic read?
Its solubility kinetic is over 25.1 µg/mL.

With Cc1ccc(C2N=C(N)Nc3nc(=O)c4ccccc4n32)cc1 (stereo unspecified) as the molecule, how does the solubility kinetic read?
Its solubility kinetic is 3.1 µg/mL (≈ 10.2 µM).

Which solubility kinetic does the source give for CSc1nccc(-c2sc(SC)c(C#N)c2-c2ccccc2)n1 here?
The solubility kinetic was under 0.3 µg/mL.

Which solubility kinetic does the source give for CCCCn1c(CCNC(=O)c2ccco2)nc2ccccc21 here?
The solubility kinetic was over 46.7 µg/mL.

For CC(=O)NC(CC(=O)O)c1ccc(F)cc1 (stereo unspecified), which solubility kinetic is on record?
Its solubility kinetic is over 33.8 µg/mL.

With CC(C)(C)NC(=O)C(OC(=O)c1cccs1)c1ccccc1 (stereo unspecified) as the molecule, how does the solubility kinetic read?
The solubility kinetic was 3.3 µg/mL (≈ 10.4 µM).

Which solubility kinetic does the source give for CCC(=O)Oc1ccc(NC(=O)c2ccco2)cc1 here?
The solubility kinetic was over 38.9 µg/mL.

With O=[N+]([O-])c1ccc(/C=C/c2ccc3cccc(O)c3n2)cc1 as the molecule, how does the solubility kinetic read?
Its solubility kinetic is under 0.3 µg/mL.

Which solubility kinetic does the source give for Cc1ccc(C(=O)Nc2nc3ccc(S(C)(=O)=O)cc3s2)cc1C here?
The solubility kinetic was under 0.4 µg/mL.

With CCCC(=O)Nc1cc(C(=O)O)ccc1Sc1ccc(C)cc1 as the molecule, how does the solubility kinetic read?
The solubility kinetic was over 49.4 µg/mL.

With CC(Sc1ccccn1)C(=O)Nc1ccc2c(c1)OCO2 (stereo unspecified) as the molecule, how does the solubility kinetic read?
Its solubility kinetic is 39 µg/mL (≈ 129 µM).

With N#CCOC(=O)[C@H](Cc1ccccc1)N1C(=O)c2ccccc2C1=O as the molecule, how does the solubility kinetic read?
Its solubility kinetic is 47.3 µg/mL (≈ 141 µM).

Which solubility kinetic does the source give for COc1ccccc1OCCNC(=O)c1ccc2c(c1)CCC2 here?
Its solubility kinetic is 42.2 µg/mL (≈ 136 µM).

Which solubility kinetic does the source give for O=C(Cc1ccc(F)cc1)Nc1nccs1 here?
Its solubility kinetic is 34.4 µg/mL (≈ 146 µM).
